The text below walks through data of ChEMBL document CHEMBL1914429, “Potent and selective 2-naphthylsulfonamide substituted hydroxamic acid inhibitors of matrix metalloproteinase-13” (Bioorg Med Chem Lett, 2011).

Series [1] deals with 72 kDa type IV collagenase (Homo sapiens, UniProt P08253).
A short description of series [2]: Clearance in rat at 5 mg/kg, po and 1 mg/kg, iv. It counts as ADME, organism-based. As to conditions: in vivo.
Series [3] is described as follows: Half life in rat at 5 mg/kg, po and 1 mg/kg, iv. The class given is ADME, organism-based. The settings on record: in vivo.
Series [4] is described as follows: Oral bioavailability in rat at 5 mg/kg. As to conditions: in vivo. It counts as ADME, organism-based.
Series [5] can be described thus: AUC in rat at 5 mg/kg, po. The class given is ADME, organism-based. The arrangement: dose 5 mg/kg, route oral. As to conditions: plasma.

Sequence of 72 kDa type IV collagenase (P08253 whole entry): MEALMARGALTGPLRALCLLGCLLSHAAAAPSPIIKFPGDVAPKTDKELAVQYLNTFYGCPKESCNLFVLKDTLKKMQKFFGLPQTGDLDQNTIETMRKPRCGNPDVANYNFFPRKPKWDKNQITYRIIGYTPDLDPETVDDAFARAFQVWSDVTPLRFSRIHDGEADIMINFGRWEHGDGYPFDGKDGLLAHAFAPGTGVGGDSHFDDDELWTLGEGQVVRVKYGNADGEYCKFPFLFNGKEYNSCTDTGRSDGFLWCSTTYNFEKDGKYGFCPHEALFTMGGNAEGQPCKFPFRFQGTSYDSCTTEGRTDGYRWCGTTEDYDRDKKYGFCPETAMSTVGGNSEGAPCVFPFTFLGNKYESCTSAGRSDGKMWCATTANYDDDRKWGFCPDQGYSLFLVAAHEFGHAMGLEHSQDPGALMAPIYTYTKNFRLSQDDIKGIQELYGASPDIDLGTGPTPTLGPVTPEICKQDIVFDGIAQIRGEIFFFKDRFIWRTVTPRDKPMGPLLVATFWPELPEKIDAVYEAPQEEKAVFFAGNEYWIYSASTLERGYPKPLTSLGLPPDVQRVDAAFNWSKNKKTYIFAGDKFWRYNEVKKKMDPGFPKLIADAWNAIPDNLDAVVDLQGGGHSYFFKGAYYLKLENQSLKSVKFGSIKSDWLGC

In series [1], `CC(C)CCN([C@@H](C(=O)NO)C(C)C)S(=O)(=O)c1ccc2c(c1)OCCO2` displayed an IC50 of 3 nM.

As to `CC(C)CN([C@@H](C(=O)NO)C(C)C)S(=O)(=O)c1ccc2ccccc2c1`, the IC50 in series [1] came out at 308 nM.

In series [2], `CC(C)CCN([C@@H](C(=O)NO)C(C)C)S(=O)(=O)c1ccc2ccccc2c1` showed a clearance of 40 mL/min/kg. In series [3], this compound showed a half-life of 5.7 h. In series [4], this compound yielded a bioavailability of 23.8%. Besides, in series [5], the exposure (AUC) was 1.5 µM·h.

The compound `CC(C)[C@H](C(=O)NO)N(CCc1ccccc1)S(=O)(=O)c1ccc2ccccc2c1` showed a clearance in series [2] of 55 mL/min/kg. In addition, in series [5], the AUC was 0.45 µM·h.

`CC(C)[C@H](C(=O)NO)N(Cc1ccncc1)S(=O)(=O)c1ccc2ccccc2c1` showed a clearance in series [2] of 122 mL/min/kg. Moreover, the AUC in series [5] came out at 0.32 µM·h.

Turning to `CC(C)[C@H](C(=O)NO)N(Cc1cccnc1)S(=O)(=O)c1ccc2ccccc2c1`, the clearance in series [2] was 107 mL/min/kg. Moreover, in series [5], the AUC was 0.55 µM·h.

In the case of `CC(C)[C@H](C(=O)NO)N(CCN(C)C)S(=O)(=O)c1ccc2ccccc2c1`, the clearance in series [2] was 233 mL/min/kg. The same compound displayed an AUC in series [5] of 0.27 µM·h.

Turning to `CC(C)CCN([C@H](CO)C(=O)NO)S(=O)(=O)c1ccc2ccccc2c1`, in series [2], the clearance is 45 mL/min/kg. Further, the AUC in series [5] worked out at 2.4 µM·h.

`CC(C)CCN([C@@H](C(=O)NO)C(C)(C)C)S(=O)(=O)c1ccc2ccccc2c1` had a clearance in series [2] of 26.7 mL/min/kg. Further, the area under the curve (AUC) in series [5] stood at 7.2 µM·h.

As for `CC(C)CCN([C@@H](C(=O)NO)C(C)O)S(=O)(=O)c1ccc2ccccc2c1` (stereo not given in full), the clearance in series [2] was 55 mL/min/kg. In series [5], the AUC was 3.1 µM·h.

`CC(C)CCN([C@@H](C(=O)NO)C(C)C)S(=O)(=O)c1ccc2ccccc2n1` gave an IC50 in series [1] of 2050 nM. This compound also showed a clearance in series [2] of 91.7 mL/min/kg. The area under the curve (AUC) in series [5] is 0.13 µM·h.

In series [2], `CC(C)CCN([C@@H](C(=O)NO)C(C)C)S(=O)(=O)c1ccc2ncccc2c1` gave a clearance of 18.3 mL/min/kg. In series [5], this compound yielded an area under the curve (AUC) of 4.6 µM·h.

Turning to `CC(C)CCN([C@@H](C(=O)NO)C(C)C)S(=O)(=O)c1ccc2sccc2c1`, the IC50 in series [1] was 16 nM. Further, the clearance in series [2] was 118 mL/min/kg. The compound also yielded an AUC in series [5] of 1.5 µM·h.

Compound `CC(C)CCN([C@@H](C(=O)NO)C(C)C)S(=O)(=O)c1ccc2c(c1)CCO2` showed a 50% inhibitory concentration (IC50) in series [1] of 10 nM.

In the case of `COc1ccc(S(=O)(=O)N(CCC(C)C)[C@@H](C(=O)NO)C(C)C)cc1OC`, in series [1], the concentration for half-maximal inhibition (IC50) came to 30100 nM.
